Data reported in US11221321B2, “Liquid chromatographic method for the simultaneous analysis of antihypertensive and antilipidemic agents and interactions thereof” (Imam Abdulrahman Bin Faisal University, priority 2019, dated 2022).

Assay: In vitro drug-drug interaction studies of sartan and statin in dissolution media by UV/Visible spectrophotometry
Assay type: physicochemical
Conditions: SGM and pH 4, 7.4, 9, 37° C., 2 hours; for interaction of losartan and atorvastatin (FIG. 7): LOS + ATR added together at 0 min; for interaction of valsartan and atorvastatin (FIG. 10): VAL + ATR added together at 0 min
Procedure: Interaction studies by UV/Visible spectrophotometry. In vitro interaction studies of antihypertensive drugs and antilipidemic agents were studied individually by using different kinds of dissolution media: SGM and media at pH 4, 7.4 and 9 as described in the experimental section.
In each set of experiments losartan or valsartan was initially added at 0 min to 500 mL dissolution medium SGM or media at pH 4, 7.4 and 9 already maintained at 37° C. The second drug, statin (ATOR, PRA or SIM) was added at the same time at zero mins. 5 mL samples were collected at regular intervals for 2 hours. The drug contents (losartan in presence of respective interacting drug, and valsartan in presence of respective interacting drug) were quantified spectrophotometrically at their respective λmax by employing simultaneous equations; FIGS. 7-12.
In FIG. 7, the drug contents (losartan in presence of respective interacting drug) were quantified spectrophotometrically at their respective λmax by employing simultaneous equations, that is, by using the molar absorptive value of the drug at a particular wavelength and a particular pH.
As the spectra of the two interacting drugs fused with each other, simultaneous methods were developed to determine losartan/valsartan and drugs of interacting classes along with each other. This technique enables one to quantitate the content of the two drugs co-existing in the same medium, without needing to separate them. To achieve this, molar absorptivity values of both losartan and the respective interacting drug were calculated at λmax of their own and at the λmax of each other using their calibration curves standards in all four pH medium.

interaction of losartan and atorvastatin (FIG. 7)	interaction of losartan and pravastatin (FIG. 8) (LOS + PRA added together at 0 min)	interaction of losartan and simvastatin (FIG. 9) (LOS + SIM added together at 0 min)	interaction of valsartan and atorvastatin (FIG. 10)	interaction of valsartan and pravastatin (FIG. 11) (VAL + PRA added together at 0 min)	interaction of valsartan and simvastatin (FIG. 12) (VAL + SIM added together at 0 min)	Structure (SMILES)
have undergone interaction	may interact in the digestive tract	NOT available in their original form				CCCCc1nc(Cl)c(CO)n1Cc1ccc(-c2ccccc2-c2nn[nH]n2)cc1 [LOS, Losartan]
have undergone interaction			may interact in the digestive tract			CC(C)c1c(C(=O)Nc2ccccc2)c(-c2ccccc2)c(-c2ccc(F)cc2)n1CC[C@@H](O)C[C@@H](O)CC(=O)O [ATR, Atorvastatin]
			may interact in the digestive tract	may interact in the digestive tract	may interact in the digestive tract	CCCCC(=O)N(Cc1ccc(-c2ccccc2-c2nnn[nH]2)cc1)[C@H](C(=O)O)C(C)C [VAL, Valsartan]
